Assay results as given in ChEMBL document CHEMBL1201862, “PubChem BioAssay data set” (2004).
Calls of active or inactive are those of the source.

Legend:
[1] = biological target: T1, Methionyl-tRNA synthetase, putative (Trypanosoma brucei brucei, UniProt Q38C91); assay type: functional, Trypanosoma brucei brucei strain 927/4 GUTat10.1
T1 sequence (Q38C91 whole entry): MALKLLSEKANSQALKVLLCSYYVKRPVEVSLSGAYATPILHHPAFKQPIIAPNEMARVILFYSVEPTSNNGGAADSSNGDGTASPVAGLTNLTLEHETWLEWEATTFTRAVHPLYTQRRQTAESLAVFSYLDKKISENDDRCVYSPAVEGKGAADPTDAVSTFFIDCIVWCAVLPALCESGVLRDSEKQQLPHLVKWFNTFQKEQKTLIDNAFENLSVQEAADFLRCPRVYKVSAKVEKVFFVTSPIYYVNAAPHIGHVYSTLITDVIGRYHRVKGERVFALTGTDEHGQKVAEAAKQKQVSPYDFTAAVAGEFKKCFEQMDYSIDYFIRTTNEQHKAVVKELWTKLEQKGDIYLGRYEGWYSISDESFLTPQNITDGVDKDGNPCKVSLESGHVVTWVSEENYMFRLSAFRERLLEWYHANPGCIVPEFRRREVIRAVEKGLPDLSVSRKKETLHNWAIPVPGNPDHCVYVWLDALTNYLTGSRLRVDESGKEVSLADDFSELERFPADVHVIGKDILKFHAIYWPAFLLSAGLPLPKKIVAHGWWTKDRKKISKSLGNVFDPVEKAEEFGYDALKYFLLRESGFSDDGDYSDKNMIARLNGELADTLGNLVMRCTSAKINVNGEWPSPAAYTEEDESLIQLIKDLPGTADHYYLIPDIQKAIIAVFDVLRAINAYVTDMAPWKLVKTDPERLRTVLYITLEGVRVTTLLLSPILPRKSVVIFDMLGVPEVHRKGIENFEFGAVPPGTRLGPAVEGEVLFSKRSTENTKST

[2] = Counterscreen for inhibitors of Trypanosoma brucei methionyl tRNA synthetase (MetRS): Luminescence-based cell-based high throughput dose response assay to identify compounds that are cytotoxic to Jurkat human T lymphocyte cells.; assay type: functional
[3] = biological target: T1, Methionyl-tRNA synthetase, putative; assay type: functional, Trypanosoma brucei brucei strain 927/4 GUTat10.1; remark: listed apart in the source
[4] = biological target: COUP transcription factor 2 (Homo sapiens, UniProt P24468); experiment: Luminescence-based cell-based high throughput dose response assay to identify inhibitors of COUP-TFII (NR2F2).; assay type: functional;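 further: HEK293 cells transiently cotransfected with COUP-TFII expression vector and reporter; luciferase reporter luminescence driven by COUP-TFII from the pX2-168 reporter plasmid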
Chain of COUP transcription factor 2 (P24468 whole entry): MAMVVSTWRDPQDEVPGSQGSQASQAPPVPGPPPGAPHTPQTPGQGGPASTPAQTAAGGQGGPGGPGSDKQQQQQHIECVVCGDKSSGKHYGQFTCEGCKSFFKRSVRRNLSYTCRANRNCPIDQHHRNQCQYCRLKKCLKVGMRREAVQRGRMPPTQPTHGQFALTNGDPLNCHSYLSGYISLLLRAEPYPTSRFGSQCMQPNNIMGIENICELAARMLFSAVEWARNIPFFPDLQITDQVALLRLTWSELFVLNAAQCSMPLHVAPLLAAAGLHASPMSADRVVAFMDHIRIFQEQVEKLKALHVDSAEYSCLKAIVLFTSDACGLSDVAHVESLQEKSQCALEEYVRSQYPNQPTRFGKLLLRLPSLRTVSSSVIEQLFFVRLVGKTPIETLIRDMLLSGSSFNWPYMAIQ

[5] = LGR2 antagonists, dose response, cell-based, HEK293, CRE-luciferase reporter, cherry pick, set 2 (AID 743343); assay type: functional;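 further: transfected cells were stimulated with diluted bursicon conditioned medium after compound addition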
[6] = MC4R antagonists, dose response, counter-screen for LGR2 antagonist project, cell-based, plate reader, cherry pick (AID 743444); assay type: functional;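 further: transfected HEK 293 cells stimulated with alpha-MSH peptide; potency of inhibitors of the alpha-MSH evoked signal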
[7] = HepG2 cell cytotoxicity, dose response, cytotoxicity control, plate reader, cherry-pick, antagonist series (AID 743416); assay type: functional, cell-based
[8] = HEK293 cell cytotoxicity, dose response, cytotoxicity control, plate reader, cherry-picked samples (AID 743446); assay type: functional, cell-based
[9] = A549 cell cytotoxicity, dose response, cytotoxicity control, plate reader, cherry-pick, antagonist series (AID 743412); assay type: functional, cell-based
[10] = biological target: T2, Acyl-homoserine lactone acylase PvdQ (Pseudomonas aeruginosa (strain LESB58), UniProt Q9I194); experiment: P. aeruginosa PvdQ acylase inhibitors, dose response, biochemical, fluorescence, plate reader and imaging, cherry-picks (AID 493231)
T2 sequence (Q9I194 whole entry): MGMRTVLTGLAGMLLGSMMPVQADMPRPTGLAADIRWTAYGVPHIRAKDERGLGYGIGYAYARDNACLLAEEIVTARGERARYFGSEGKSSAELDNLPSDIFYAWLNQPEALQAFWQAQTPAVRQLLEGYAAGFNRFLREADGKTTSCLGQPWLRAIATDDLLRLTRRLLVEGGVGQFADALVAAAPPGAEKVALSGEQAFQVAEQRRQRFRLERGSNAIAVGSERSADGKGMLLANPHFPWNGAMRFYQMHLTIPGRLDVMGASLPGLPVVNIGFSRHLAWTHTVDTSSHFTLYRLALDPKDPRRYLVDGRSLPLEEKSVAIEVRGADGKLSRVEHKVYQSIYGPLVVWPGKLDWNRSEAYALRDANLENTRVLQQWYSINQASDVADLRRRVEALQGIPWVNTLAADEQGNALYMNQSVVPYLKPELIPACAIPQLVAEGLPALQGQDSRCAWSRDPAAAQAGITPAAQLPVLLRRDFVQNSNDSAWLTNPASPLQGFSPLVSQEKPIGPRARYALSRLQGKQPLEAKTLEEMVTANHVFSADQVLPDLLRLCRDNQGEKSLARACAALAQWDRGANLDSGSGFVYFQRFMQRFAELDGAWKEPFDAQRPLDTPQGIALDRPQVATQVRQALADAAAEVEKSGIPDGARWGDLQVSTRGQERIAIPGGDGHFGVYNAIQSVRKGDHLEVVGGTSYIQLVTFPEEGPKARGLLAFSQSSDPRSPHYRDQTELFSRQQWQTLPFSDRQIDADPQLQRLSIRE

[11] = cytotoxicity in HEK-293T cells, dose response, cytotoxicity control for TCR NF-kB inhibitor project, luminescence, T-cell screen hits (AID 489026); assay type: functional, cell-based;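 further: cells exposed to compound about 14 hours before the viability readout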
[12] = HEp-2 cell cytotoxicity, dose response, cytotoxicity control for RSV inhibitor project, HTS (AID 2410); assay type: functional; settings: human respiratory syncytial virus
[13] = biological target: T3, Heat shock factor protein 1 (Mus musculus, UniProt P38532); experiment: inhibition of MG132-induced HSE-luciferase signal, confirmation, cell-based, NIH3T3, luminescence, dose retest (AID 2382); assay type: functional;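 further: NIH3T3 fibroblasts with HSF1-driven luciferase reporter stressed by proteasome inhibitor MG132; luminescence from HSF1-driven luciferase expression after 8 hours of MG132 stress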
T3 sequence (P38532 whole entry): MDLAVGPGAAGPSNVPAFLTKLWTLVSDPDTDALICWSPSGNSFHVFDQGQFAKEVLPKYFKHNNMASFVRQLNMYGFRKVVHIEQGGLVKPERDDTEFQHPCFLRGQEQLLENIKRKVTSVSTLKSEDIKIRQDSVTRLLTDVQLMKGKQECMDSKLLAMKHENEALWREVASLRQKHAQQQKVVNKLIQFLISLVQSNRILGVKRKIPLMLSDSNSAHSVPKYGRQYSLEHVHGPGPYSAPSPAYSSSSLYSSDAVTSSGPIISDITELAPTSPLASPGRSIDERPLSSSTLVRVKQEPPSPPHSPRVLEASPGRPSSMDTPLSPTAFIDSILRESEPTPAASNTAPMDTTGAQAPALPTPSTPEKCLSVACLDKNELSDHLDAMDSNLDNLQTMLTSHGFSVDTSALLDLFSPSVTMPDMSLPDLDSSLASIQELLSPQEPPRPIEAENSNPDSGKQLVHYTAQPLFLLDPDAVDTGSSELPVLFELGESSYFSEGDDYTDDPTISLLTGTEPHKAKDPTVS

[14] = Luminescence Cell-Based Dose Response HTS to Identify Activators of Luciferase Translation or Activity in H4 […] Cells. [Related pubchem assays: 1829 (Project Summary), 1814 (Primary HTS)]; assay type: functional
[15] = Counterscreen for activators of the function of SWI/SNF related, matrix associated, actin dependent regulator of chromatin, subfamily a, member 2 (SMARCA2, BRM): Luminescence-based cell-based high throughput dose response assay to identify non-selective compounds using the VP16 reporter assay.; assay type: functional
[16] = test system: H4; experiment: Luminescence Cell-Based Dose Response HTS to Identify Activators of 5'UTR Stem-Loop Driven Prion Protein mRNA Translation in H4 Neuroglioblastoma Cells. [Related pubchem assays: 1829 (Project Summary), 1814 (Primary HTS)]; assay type: functional; settings: Homo sapiens
[17] = Luminescence Cell-Based Dose Confirmation HTS to Identify Activators of 5'UTR Stem-Loop Driven Alpha-Synuclein mRNA Translation in H4 Neuroglioblastoma Cells. [Related pubchem assays: 1829 (Project Summary), 1814 (Primary HTS)]; assay type: functional
[18] = biological target: SWI/SNF-related matrix-associated actin-dependent regulator of chromatin subfamily A member 2 (Homo sapiens, UniProt P51531); experiment: Luminescence-based cell-based high throughput dose response assay to identify activators of the function of SWI/SNF related, matrix associated, actin dependent regulator of chromatin, subfamily a, member 2 (SMARCA2, BRM).; assay type: functional
Chain of SWI/SNF-related matrix-associated actin-dependent regulator of chromatin subfamily A member 2 (P51531 whole entry): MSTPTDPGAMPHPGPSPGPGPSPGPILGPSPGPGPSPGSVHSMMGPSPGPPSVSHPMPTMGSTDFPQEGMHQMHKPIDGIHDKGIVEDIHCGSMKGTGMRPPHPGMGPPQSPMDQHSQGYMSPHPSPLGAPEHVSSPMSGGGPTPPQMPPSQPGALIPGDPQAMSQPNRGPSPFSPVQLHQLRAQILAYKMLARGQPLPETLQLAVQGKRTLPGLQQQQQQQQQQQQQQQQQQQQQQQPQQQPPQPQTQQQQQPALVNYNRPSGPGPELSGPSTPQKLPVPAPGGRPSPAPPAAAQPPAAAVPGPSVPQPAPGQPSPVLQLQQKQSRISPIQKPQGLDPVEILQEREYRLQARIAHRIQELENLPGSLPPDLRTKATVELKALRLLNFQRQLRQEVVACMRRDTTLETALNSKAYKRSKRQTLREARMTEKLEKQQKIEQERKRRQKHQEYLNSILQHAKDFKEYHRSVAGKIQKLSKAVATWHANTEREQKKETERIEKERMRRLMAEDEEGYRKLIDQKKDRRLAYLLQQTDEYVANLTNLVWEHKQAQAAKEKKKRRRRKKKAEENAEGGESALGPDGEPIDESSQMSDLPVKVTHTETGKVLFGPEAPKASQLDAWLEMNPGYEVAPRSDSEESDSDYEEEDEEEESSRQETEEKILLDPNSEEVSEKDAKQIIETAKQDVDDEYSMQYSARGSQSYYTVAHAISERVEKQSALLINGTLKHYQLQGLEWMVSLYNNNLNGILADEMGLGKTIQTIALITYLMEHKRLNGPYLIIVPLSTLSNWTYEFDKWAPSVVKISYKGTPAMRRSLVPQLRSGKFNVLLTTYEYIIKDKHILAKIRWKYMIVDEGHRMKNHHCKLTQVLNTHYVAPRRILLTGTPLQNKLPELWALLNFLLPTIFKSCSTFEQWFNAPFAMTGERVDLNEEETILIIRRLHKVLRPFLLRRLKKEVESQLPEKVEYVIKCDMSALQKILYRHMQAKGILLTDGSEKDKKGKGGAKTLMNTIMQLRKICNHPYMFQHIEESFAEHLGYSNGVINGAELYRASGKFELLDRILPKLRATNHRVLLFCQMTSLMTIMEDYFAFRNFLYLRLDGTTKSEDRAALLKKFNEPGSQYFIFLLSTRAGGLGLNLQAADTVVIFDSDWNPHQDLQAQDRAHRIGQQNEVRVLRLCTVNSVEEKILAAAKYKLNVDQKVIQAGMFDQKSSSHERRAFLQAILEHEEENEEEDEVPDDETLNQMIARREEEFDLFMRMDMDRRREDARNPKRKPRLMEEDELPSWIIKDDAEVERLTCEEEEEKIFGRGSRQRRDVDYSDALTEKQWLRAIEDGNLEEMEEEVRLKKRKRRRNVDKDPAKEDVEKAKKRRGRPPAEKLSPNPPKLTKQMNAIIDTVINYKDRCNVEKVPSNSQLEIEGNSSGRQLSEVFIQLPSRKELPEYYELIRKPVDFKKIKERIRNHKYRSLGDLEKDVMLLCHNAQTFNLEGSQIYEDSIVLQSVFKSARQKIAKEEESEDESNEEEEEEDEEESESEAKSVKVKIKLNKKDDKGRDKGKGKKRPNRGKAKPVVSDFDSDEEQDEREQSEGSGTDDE

[19] = NIH:OVCAR-3 ovarian cancer cell cytotoxicity, dose response, PAX8 inhibitor project, plate reader, dry powder samples (AID 743044); assay type: functional, cell-based
[20] = cytotoxicity dependent on PAX8, dose response, cell-based, plate reader, dry powder (AID 743049); assay type: functional
[21] = IOSE-T80 ovarian epithelial cell cytotoxicity, dose response, cytotoxicity control for PAX8 inhibitor project, plate reader, dry powder samples (AID 743045); assay type: functional, cell-based
[22] = cytotoxicity in COV434 cells, dose response, cytotoxicity control for PAX8 inhibitor project, cell-based, plate reader, dry powder, SA7 (AID 743145); assay type: functional
[23] = biological target: Paired box protein Pax-8 (Homo sapiens, UniProt Q06710); experiment: inhibitors of PAX8-driven TPO luciferase reporter, dose response, RMG-I cells, cherry-pick (AID 687027); assay type: functional, cell-based;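 further: luciferase reporter driven by Pax8 target thyroperoxidase promoter measured by SteadyGlo luminescence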
Chain of Paired box protein Pax-8 (Q06710 whole entry): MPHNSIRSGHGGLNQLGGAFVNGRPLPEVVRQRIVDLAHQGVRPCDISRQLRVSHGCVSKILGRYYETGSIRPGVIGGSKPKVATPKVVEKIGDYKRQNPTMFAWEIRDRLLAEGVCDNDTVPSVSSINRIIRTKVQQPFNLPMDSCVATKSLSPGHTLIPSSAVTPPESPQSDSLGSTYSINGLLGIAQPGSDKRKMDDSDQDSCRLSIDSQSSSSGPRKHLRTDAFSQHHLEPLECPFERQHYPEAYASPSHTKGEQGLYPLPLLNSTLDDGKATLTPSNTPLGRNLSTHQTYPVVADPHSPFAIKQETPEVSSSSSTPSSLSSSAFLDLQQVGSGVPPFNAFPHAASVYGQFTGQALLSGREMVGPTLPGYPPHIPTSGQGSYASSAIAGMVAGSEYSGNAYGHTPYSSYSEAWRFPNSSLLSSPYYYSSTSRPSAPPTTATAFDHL

[24] = cytotoxicity in OVCAR4 cells, dose response, cytotoxicity control for PAX8 inhibitor project, cell-based, plate reader, dry powder, SA11 (AID 743150); assay type: functional; settings: OVCAR-4
[25] = cytotoxicity in OV-90 ovarian cancer cells, dose response, PAX8 inhibitor project, cell-based, plate reader, dry powder, SA8 (AID 743149); assay type: functional
[26] = biological target: T4, Rac GTPase-activating protein 1 (Homo sapiens, UniProt Q9H0H5); experiment: MgcRacGAP GTPase-activating activity inhibitors, confirmation, biochemical, ADP Hunter fluorescence, primary and confirmatory (AID 624330); assay type: functional
T4 sequence (Q9H0H5 whole entry): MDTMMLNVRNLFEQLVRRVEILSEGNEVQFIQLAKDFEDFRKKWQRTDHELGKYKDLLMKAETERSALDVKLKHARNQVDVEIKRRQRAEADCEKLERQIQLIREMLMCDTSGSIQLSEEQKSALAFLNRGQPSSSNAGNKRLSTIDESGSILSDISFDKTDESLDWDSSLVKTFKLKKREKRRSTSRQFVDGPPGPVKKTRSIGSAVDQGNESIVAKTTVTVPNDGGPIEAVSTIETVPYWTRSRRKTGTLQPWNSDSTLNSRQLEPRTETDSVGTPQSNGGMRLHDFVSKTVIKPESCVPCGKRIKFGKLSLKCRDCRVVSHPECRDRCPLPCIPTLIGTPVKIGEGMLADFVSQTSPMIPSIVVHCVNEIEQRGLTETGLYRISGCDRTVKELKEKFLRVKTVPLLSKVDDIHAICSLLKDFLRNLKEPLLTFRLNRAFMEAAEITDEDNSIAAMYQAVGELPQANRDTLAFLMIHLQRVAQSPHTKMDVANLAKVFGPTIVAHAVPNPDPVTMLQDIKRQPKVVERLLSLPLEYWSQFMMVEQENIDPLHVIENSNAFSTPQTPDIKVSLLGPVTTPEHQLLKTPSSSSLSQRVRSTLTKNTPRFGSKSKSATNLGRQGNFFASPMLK

[27] = HeLa cell cytotoxicity, dose response, cytotoxicity control for MgcRacGAP inhibitor project (AID 624300); assay type: functional
[28] = test system: HeLa; experiment: HeLa cell cytotoxicity, dose response, cytotoxicity control for MITF activator project, CellTiter-Glo luminescence, cherry-pick samples (AID 540259); assay type: functional, cell-based; settings: Homo sapiens
[29] = biological target: FAD-linked sulfhydryl oxidase ALR (Homo sapiens, UniProt P55789); experiment: inhibitors of human ALR sulfhydryl oxidase, dose response, biochemical, H2O2 detection, luminescence, cherry-pick (AID 493248)
Chain of FAD-linked sulfhydryl oxidase ALR (P55789 whole entry): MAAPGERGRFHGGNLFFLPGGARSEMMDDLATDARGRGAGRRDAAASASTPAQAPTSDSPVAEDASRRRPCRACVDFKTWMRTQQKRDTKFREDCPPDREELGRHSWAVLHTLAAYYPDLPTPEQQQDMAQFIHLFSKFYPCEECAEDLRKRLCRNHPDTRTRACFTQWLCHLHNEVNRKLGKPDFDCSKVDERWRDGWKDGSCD

[30] = test system: HEK293; experiment: HEK293T cell cytotoxicity, dose response, cytotoxicity control, ATP luminescence, cherry-pick samples (AID 687005); assay type: functional, cell-based; settings: Homo sapiens;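 further: cells exposed to compound for 48 hours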
[31] = HEK293 Cytotoxicity Assay Measured in Cell-Based System Using Plate Reader - 7071-01_Inhibitor_Dose_CherryPick_Activity_Set2.; assay type: functional

O=c1c(OC2OC(CO)C(O)C(O)C2OC2OC(CO)C(O)C(O)C2O)c(-c2ccc(O)cc2)oc2cc(O)cc(O)c12 (centres undefined)
inactive: IC50 [1] 20.9 µM | IC50 [2] 83.3 µM | IC50 [3] 38.8 µM

Cc1nnsc1NC(=O)OCc1ccc(C(C)(C)C)cc1
inactive: IC50 [4] 10.4 µM

Cc1ccc2nc(-c3ccc4c(c3)OCCO4)cn2c1
inactive: IC50 [11] > 80 µM
active: AC50 [5] 0.366 µM | AC50 [6] 0.527 µM | AC50 [7] 2.18 µM | AC50 [8] 2.21 µM | AC50 [9] 2.56 µM | AC50 [10] 1.27 µM

Cc1nc2c(-c3ccccc3)cnn2c(N)c1-c1ccccc1
active: CC50 [12] 17.2 µM | EC50 [13] < 0.16 µM | IC50 [4] > 9.5 µM

Nc1cc(C2CCCC2)nn1-c1ccccc1
active: EC50 [14] 7.02 µM | EC50 [16] 6.8 µM | EC50 [17] 0.13 µM
inactive: EC50 [15] > 91.2 µM | EC50 [18] > 91.2 µM

Cc1ccc(-c2csc(NC3OC(=O)c4ccccc43)n2)cc1 (centres undefined)
active: AC50 [19] 28.3 µM | AC50 [20] 13 µM | AC50 [21] 33.7 µM | AC50 [22] 0.0641 µM | AC50 [23] 7.58 µM | AC50 [24] 17.3 µM | AC50 [25] 23.1 µM

C(=N\Nc1nc2ccccc2[nH]1)/c1c[nH]c2ccccc12
active: IC50 [26] 35.8 µM | CC50 [27] 81.9 µM | AC50 [28] 40 µM | AC50 [29] 0.309 µM
inactive: IC50 [1] 11.7 µM | IC50 [2] 34.8 µM | IC50 [3] 32.2 µM

C[C@@H]1CCCCO[C@@H](CN(C)S(=O)(=O)c2ccccc2)[C@H](C)CN([C@@H](C)CO)C(=O)c2cc(NC(=O)Nc3ccc(F)cc3)ccc2O1
active: AC50 [30] 21.6 µM | AC50 [31] 21.6 µM

O=C(C[C@H]1CC[C@@H]2[C@H](COC[C@@H](O)CN2C(=O)c2cnccn2)O1)NCc1ccc(Oc2ccccc2)cc1
active: AC50 [30] 35.7 µM | AC50 [31] 35.7 µM

COc1ccc(/N=C/c2nc(-c3ccco3)oc2O)cc1
inactive: EC50 [15] > 91.2 µM | EC50 [18] > 91.2 µM
